Reference: article PMC11345841, “Exploring 2-Sulfonylpyrimidine Warheads as Acrylamide Surrogates for Targeted Covalent Inhibition: A BTK Story” (Journal of Medicinal Chemistry, 2024)
Like-named read-outs stand apart in the source and are kept apart here.

Assays:
Assay in all cases: KINOMEscan ScanTK
Format in all cases: binding
[1] = target: T1, ABL1(F317I)-phosphorylated (Homo sapiens, UniProt P00519, F317I)
T1 construct: purchased Eurofins DiscoverX KINOMEscan (scanTK)

[2] = target: T2, ABL1(F317L)-phosphorylated (Homo sapiens, UniProt P00519, F317L)
T2 construct: purchased Eurofins DiscoverX KINOMEscan (scanTK)

ABL1-nonphosphorylated = target: T3, ABL1-nonphosphorylated (Homo sapiens, UniProt P00519)
T3 construct: purchased Eurofins DiscoverX KINOMEscan (scanTK)

ALK(L1196M) = target: T4, ALK(L1196M) (Homo sapiens, UniProt Q9UM73, L1196M)
T4 construct: purchased Eurofins DiscoverX KINOMEscan (scanTK)

EGFR(G719S) = target: T5, EGFR(G719S) (Homo sapiens, UniProt P00533, G719S)
T5 construct: purchased Eurofins DiscoverX KINOMEscan (scanTK)

EPHB4 = target: T6, EPHB4 (Homo sapiens, UniProt P54760)
T6 construct: purchased Eurofins DiscoverX KINOMEscan (scanTK)
T6 sequence (P54760 16-987): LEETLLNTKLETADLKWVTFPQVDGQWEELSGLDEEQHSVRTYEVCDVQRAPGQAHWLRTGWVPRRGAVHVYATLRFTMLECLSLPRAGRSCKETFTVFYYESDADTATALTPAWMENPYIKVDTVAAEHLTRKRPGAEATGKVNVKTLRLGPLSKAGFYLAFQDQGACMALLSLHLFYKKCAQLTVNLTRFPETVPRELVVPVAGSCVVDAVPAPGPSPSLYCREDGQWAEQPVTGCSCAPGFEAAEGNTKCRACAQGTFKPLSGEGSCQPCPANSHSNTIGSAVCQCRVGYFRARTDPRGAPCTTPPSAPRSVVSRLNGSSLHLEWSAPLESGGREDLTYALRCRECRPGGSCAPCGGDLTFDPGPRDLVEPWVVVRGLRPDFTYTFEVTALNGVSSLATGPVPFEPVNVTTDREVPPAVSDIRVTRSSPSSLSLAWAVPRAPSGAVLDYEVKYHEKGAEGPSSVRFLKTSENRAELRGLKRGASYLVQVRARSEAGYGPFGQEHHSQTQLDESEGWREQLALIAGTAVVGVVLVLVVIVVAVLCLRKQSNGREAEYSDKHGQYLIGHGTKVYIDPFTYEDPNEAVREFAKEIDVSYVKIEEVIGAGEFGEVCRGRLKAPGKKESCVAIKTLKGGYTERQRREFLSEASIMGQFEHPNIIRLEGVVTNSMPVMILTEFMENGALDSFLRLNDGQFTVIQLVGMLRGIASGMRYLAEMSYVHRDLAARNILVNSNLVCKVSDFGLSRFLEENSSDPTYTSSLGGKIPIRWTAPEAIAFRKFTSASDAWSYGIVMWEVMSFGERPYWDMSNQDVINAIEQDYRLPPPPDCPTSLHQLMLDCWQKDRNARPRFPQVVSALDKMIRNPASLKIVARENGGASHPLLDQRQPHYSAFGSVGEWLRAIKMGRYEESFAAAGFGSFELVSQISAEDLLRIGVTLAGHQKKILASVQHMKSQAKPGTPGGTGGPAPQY

[3] = target: T7, JAK1(JH2domain-pseudokinase) (Homo sapiens, UniProt P23458)
T7 construct: JAK1(JH2domain-pseudokinase); purchased Eurofins DiscoverX KINOMEscan (scanTK)

[4] = target: T8, JAK3(JH1domain-catalytic) (Homo sapiens, UniProt P52333); settings: for difference in %Control from compound Ib at 1 µM / remaining binding at 1 µM: JAK3(JH1domain-catalytic); for inhibition at 1 µM: ScanTK
T8 construct: JAK3(JH1domain-catalytic); purchased Eurofins DiscoverX KINOMEscan (scanTK)

KIT(L576P) = target: T9, KIT(L576P) (Homo sapiens, UniProt P10721, L576P); settings: for difference in %Control versus Ib at 1 µM: read-out: % difference (compound - Ib %Control)
T9 construct: purchased Eurofins DiscoverX KINOMEscan (scanTK)

MET = target: T10, MET (Homo sapiens, UniProt P08581)
T10 construct: purchased Eurofins DiscoverX KINOMEscan (scanTK)

PDGFRA = target: T11, PDGFRA (Homo sapiens, UniProt P16234)
T11 construct: purchased Eurofins DiscoverX KINOMEscan (scanTK)

RET = target: T12, RET (Homo sapiens, UniProt P07949)
T12 construct: purchased Eurofins DiscoverX KINOMEscan (scanTK)

TRKC = target: T13, TRKC (Homo sapiens, UniProt Q16288); settings: TRKC
T13 construct: purchased Eurofins DiscoverX KINOMEscan (scanTK)

T10 sequence (P08581 25-1390): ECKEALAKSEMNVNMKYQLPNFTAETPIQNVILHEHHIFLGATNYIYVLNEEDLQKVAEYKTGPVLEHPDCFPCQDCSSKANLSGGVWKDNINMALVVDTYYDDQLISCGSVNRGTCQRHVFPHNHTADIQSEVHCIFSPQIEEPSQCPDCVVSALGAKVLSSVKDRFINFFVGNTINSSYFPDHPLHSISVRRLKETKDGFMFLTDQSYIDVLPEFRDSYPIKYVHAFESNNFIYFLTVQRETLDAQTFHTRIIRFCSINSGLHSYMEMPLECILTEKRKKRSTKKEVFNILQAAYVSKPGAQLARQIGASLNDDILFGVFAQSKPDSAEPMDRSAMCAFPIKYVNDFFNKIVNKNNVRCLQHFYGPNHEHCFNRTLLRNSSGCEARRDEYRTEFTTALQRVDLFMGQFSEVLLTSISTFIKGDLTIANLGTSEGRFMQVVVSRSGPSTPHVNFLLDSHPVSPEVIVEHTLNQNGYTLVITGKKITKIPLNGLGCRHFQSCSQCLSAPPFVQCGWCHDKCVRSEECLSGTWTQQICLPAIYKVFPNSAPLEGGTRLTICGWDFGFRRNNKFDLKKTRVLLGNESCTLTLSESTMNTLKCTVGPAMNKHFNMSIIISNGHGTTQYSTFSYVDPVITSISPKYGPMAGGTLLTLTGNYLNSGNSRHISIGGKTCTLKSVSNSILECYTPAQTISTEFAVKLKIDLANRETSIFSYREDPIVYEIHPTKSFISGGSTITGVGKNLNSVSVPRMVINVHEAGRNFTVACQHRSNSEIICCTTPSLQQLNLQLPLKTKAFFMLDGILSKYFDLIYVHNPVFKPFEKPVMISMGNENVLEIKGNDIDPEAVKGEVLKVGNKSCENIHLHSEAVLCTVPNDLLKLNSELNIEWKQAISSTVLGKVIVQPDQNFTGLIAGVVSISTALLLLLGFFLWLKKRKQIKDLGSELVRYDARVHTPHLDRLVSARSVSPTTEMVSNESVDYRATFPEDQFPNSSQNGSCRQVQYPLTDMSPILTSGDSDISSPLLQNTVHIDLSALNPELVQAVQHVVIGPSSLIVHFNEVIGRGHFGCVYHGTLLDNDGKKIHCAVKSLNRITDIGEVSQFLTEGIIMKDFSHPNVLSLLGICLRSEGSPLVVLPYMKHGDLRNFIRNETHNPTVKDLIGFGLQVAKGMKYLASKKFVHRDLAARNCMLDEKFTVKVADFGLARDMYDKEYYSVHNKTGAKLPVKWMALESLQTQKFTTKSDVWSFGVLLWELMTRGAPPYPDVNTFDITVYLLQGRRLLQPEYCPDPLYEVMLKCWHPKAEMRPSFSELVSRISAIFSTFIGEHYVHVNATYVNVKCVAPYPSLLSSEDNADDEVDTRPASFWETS
T5 sequence (P00533 25-1210 G719S): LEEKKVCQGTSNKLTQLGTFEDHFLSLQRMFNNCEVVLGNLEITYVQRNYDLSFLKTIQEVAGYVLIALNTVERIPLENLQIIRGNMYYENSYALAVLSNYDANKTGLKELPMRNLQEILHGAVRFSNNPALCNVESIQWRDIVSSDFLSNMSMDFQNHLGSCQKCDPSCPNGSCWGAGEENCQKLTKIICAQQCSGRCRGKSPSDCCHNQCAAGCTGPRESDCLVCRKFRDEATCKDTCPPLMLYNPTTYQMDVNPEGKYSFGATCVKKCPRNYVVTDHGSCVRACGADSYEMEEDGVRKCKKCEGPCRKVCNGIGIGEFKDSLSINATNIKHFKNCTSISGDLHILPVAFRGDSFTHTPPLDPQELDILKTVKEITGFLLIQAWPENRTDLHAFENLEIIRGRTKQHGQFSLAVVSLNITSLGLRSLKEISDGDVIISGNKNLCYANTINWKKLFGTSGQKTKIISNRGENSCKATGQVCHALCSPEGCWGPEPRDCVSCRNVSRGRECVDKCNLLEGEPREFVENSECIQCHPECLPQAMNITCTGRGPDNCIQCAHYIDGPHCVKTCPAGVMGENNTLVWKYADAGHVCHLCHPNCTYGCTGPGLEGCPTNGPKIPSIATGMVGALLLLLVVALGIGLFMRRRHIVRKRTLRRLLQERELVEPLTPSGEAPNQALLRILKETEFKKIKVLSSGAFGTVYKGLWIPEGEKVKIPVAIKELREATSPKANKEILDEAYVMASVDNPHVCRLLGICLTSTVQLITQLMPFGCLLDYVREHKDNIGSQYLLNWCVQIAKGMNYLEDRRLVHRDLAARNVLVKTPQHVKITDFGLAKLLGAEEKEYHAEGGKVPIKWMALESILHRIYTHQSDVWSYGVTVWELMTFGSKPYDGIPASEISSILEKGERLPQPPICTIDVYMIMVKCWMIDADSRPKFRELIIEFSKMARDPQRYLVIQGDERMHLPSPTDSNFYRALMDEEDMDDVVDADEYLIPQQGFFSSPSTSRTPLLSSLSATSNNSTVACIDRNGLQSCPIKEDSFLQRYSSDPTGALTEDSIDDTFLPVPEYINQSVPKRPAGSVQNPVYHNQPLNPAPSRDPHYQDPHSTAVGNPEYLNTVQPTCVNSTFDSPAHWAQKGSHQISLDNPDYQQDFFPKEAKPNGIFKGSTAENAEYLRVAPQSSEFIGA
T8 sequence (P52333 822-1124 limits assumed): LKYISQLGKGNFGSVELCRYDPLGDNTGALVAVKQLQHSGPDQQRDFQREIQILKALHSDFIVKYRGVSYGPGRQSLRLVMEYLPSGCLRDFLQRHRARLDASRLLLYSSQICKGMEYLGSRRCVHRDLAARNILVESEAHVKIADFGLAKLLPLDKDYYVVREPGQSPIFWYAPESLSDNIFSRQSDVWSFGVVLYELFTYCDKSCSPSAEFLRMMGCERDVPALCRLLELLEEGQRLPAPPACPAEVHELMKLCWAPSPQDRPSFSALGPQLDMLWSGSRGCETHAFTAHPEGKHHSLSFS
T9 sequence (P10721 26-976 L576P): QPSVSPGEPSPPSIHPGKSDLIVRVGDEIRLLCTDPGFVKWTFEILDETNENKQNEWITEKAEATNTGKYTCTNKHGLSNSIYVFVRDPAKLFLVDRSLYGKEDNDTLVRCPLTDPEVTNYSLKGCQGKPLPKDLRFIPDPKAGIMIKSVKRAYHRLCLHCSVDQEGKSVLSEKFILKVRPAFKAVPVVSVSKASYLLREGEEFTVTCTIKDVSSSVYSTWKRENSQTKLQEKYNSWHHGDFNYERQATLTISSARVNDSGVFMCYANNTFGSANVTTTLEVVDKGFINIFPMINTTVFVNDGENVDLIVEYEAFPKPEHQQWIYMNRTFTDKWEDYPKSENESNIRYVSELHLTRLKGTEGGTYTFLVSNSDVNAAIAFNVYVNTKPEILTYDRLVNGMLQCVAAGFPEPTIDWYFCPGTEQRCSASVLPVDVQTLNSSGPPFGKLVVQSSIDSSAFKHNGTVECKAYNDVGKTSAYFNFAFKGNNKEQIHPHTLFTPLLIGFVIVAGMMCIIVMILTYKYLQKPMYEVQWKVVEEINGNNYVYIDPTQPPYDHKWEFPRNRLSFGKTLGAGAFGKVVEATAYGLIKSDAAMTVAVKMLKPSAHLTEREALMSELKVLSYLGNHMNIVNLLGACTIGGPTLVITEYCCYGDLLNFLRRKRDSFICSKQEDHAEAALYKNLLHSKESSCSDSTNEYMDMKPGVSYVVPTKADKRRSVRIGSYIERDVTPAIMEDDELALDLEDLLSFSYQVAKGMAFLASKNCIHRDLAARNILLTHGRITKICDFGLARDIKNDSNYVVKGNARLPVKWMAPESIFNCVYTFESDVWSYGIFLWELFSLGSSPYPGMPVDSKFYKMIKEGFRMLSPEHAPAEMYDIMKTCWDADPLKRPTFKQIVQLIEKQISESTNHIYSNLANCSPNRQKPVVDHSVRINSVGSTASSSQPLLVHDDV
T2 sequence (P00519 whole entry F317L): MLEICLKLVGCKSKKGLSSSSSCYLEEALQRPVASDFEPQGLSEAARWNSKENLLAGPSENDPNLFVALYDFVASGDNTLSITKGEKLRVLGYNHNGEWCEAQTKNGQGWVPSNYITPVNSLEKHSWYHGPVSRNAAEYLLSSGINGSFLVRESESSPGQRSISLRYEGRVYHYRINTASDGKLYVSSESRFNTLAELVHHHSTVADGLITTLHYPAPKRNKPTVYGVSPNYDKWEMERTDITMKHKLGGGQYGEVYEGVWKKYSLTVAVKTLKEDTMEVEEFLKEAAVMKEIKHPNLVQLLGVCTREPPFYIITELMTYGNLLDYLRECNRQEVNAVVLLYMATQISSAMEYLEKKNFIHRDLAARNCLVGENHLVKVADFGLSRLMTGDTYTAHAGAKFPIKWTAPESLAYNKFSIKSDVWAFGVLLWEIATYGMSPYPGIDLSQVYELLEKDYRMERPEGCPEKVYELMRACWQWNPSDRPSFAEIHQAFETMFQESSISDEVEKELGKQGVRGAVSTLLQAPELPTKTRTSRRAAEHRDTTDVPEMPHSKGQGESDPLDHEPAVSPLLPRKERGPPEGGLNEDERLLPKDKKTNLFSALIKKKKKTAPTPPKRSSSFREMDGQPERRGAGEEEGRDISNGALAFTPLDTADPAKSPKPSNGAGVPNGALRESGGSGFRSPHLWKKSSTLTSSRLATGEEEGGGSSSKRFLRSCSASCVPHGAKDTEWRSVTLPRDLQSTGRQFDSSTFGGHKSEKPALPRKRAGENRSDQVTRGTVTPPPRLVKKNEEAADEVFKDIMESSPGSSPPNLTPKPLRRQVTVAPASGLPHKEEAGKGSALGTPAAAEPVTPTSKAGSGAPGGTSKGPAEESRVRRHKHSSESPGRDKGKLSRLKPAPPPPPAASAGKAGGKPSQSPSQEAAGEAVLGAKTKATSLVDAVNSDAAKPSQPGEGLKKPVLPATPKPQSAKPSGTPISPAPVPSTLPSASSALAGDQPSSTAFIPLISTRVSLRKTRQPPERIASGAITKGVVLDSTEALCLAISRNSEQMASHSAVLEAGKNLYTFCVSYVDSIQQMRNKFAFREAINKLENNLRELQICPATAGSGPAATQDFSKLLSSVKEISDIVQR
T1 sequence (P00519 whole entry F317I): as the sequence (P00519 whole entry F317L) above, with L317I counted along it
T3 sequence (P00519 whole entry): as the sequence (P00519 whole entry F317L) above, with L317F counted along it

difference in %Control from reference compound Ib at 1 µM ([1]; @1000nM) | remaining binding at 1 µM ([1]; @1000nM, read-out: %Control) | remaining binding at 1 µM ([1]; read-out: %Control @1000nM) | difference in %Control from compound Ib at 1 µM ([2]; @1000nM) | remaining binding at 1 µM ([2]; @1000nM, read-out: %Control) | remaining binding at 1 µM ([2]; read-out: %Control @1000nM) | difference in %Control from reference compound Ib at 1 µM (ABL1-nonphosphorylated; @1000nM) | remaining binding at 1 µM (ABL1-nonphosphorylated; @1000nM, read-out: %Control) | remaining binding at 1 µM (ABL1-nonphosphorylated; read-out: %Control @1000nM) | difference in % of control vs compound Ib at 1 µM (ALK(L1196M); @1000nM) | remaining binding at 1 µM (ALK(L1196M); @1000nM, read-out: %Control) | remaining binding at 1 µM (ALK(L1196M); read-out: %Control @1000nM) | difference in %Control from compound Ib at 1 µM (EGFR(G719S); @1000nM) | remaining binding at 1 µM (EGFR(G719S); @1000nM, read-out: %Control) | remaining binding at 1 µM (EGFR(G719S); read-out: %Control @1000nM) | difference in %Control from compound Ib at 1 µM (EPHB4; @1000nM) | remaining binding at 1 µM (EPHB4; @1000nM, read-out: %Control) | remaining binding at 1 µM (EPHB4; read-out: %Control @1000nM) | %Control difference versus compound Ib at 1 µM ([3]; @1000nM) | remaining binding at 1 µM ([3]; @1000nM, read-out: %Control) | Structure (SMILES) | also measured
6% | 79% | 79% | 16% | 53% | 53% | 56.5% | 65% | 65% | -8% | 92% | 92% | 84.4% | 85% | 85% | -2% | 98% | 98% | 4% | 99% | COC(=O)c1cnc(S(C)(=O)=O)nc1N1CCCC(n2nc(-c3ccc(Oc4ccccc4)cc3)c3c(N)ncnc32)C1 (centres unmarked) [Compound 8b, Methyl 4-(3-(4-Amino-3-(4-phenoxyphenyl)-1H-pyrazolo[3,4-d]pyrimidin-1-yl)piperidin-1-yl)-2-(methylsulfonyl)pyrimidine-5-carboxylate] | remaining binding at 1 µM ([3]; read-out: %Control @1000nM): 99%; difference in %Control from compound Ib at 1 µM ([4]; @1000nM): 94.5%; remaining binding at 1 µM ([4]; @1000nM, read-out: %Control): 100%; remaining binding at 1 µM ([4]; read-out: %Control @1000nM): 100%; inhibition at 1 µM [4]: < 1%; difference in %Control versus Ib at 1 µM (KIT(L576P); @1000nM): 24%; remaining binding at 1 µM (KIT(L576P); @1000nM, read-out: %Control): 56%; remaining binding at 1 µM (KIT(L576P); read-out: %Control @1000nM): 56%; remaining binding at 1 µM (MET; @1000nM, read-out: %Control): 100%; remaining binding at 1 µM (MET; read-out: %Control @1000nM): 100%; remaining binding at 1 µM (PDGFRA; @1000nM, read-out: %Control): 90%; remaining binding at 1 µM (PDGFRA; read-out: %Control @1000nM): 90%; remaining binding at 1 µM (RET; @1000nM, read-out: %Control): 56%; remaining binding at 1 µM (RET; read-out: %Control @1000nM): 56%; difference in %Control versus compound Ib at 1 µM (TRKC; @1000nM): -17%; remaining binding at 1 µM (TRKC; @1000nM, read-out: %Control): 78%; remaining binding at 1 µM (TRKC; read-out: %Control @1000nM): 78%
15% | 88% | 88% | 49% | 86% | 86% | 36.5% | 45% | 45% | -23% | 77% | 77% | 93.4% | 94% | 94% | -14% | 86% | 86% | 4% | 99% | CCOC(=O)c1cnc(S(C)(=O)=O)nc1N1CCC[C@@H](n2nc(-c3ccc(Oc4ccccc4)cc3)c3c(N)ncnc32)C1 [Compound 8c, Ethyl (R)-4-(3-(4-Amino-3-(4-phenoxyphenyl)-1H-pyrazolo[3,4-d]pyrimidin-1-yl)piperidin-1-yl)-2-(methylsulfonyl)pyrimidine-5-carboxylate] | remaining binding at 1 µM ([3]; read-out: %Control @1000nM): 99%; difference in %Control from compound Ib at 1 µM ([4]; @1000nM): 94.5%; remaining binding at 1 µM ([4]; @1000nM, read-out: %Control): 100%; remaining binding at 1 µM ([4]; read-out: %Control @1000nM): 100%; inhibition at 1 µM [4]: < 1%; difference in %Control versus Ib at 1 µM (KIT(L576P); @1000nM): 32%; remaining binding at 1 µM (KIT(L576P); @1000nM, read-out: %Control): 64%; remaining binding at 1 µM (KIT(L576P); read-out: %Control @1000nM): 64%; remaining binding at 1 µM (MET; @1000nM, read-out: %Control): 100%; remaining binding at 1 µM (MET; read-out: %Control @1000nM): 100%; remaining binding at 1 µM (PDGFRA; @1000nM, read-out: %Control): 91%; remaining binding at 1 µM (PDGFRA; read-out: %Control @1000nM): 91%; remaining binding at 1 µM (RET; @1000nM, read-out: %Control): 84%; remaining binding at 1 µM (RET; read-out: %Control @1000nM): 84%; difference in %Control versus compound Ib at 1 µM (TRKC; @1000nM): -18%; remaining binding at 1 µM (TRKC; @1000nM, read-out: %Control): 77%; remaining binding at 1 µM (TRKC; read-out: %Control @1000nM): 77%
